Results published in patent US11684676B2, “Site-specific antibody-drug conjugates by ADP-ribosyl cyclases” (University of Southern California, priority 2020, dated 2023).

Tested on: CD38 C-fusion IgG
Assay: Inactivation of CD38 C-fusion IgG by 2′-Cl-araNAD+-N3
Assay type: biochemical, human
Conditions: CD38 C-fusion IgG 2 nM, NGD+ 100 μM
Description: The formation of cyclic GDP-ribose was monitored by a Synergy H1 plate reader (Biotek, VT) under the kinetic mode with excitation wavelength set at 300 nm and emission wavelength at 410 nm.

[N-]=[N+]=NCCCNc1ncnc2c1ncn2[C@@H]1O[C@H](COP(=O)(O)OP(=O)([O-])OC[C@H]2O[C@@H]([n+]3cccc(C(N)=O)c3)[C@@H](Cl)[C@@H]2O)[C@@H](O)[C@H]1O [2′-Cl-araNAD^+-N3, 1-((2R,3S,4R,5R)-5-((((((((2R,3S,4R,5R)-5-(6-((3-azidopropyl)amino)-9H-purin-9-yl)-3,4-dihydroxytetrahydrofuran-2-yl)methoxy)(hydroxy)phosphoryl)oxy)oxidophosphoryl)oxy)methyl)-3-chloro-4-hydroxytetrahydrofuran-2-yl)-3-carbamoylpyridin-1-ium]
kinact: 0.0039 ± 0.0007 s⁻¹
